Marks after values point to notes of the source that are not given here.
System: adult, male Wistar rats
Assay: Sleep measurement by EEG in rats (in vivo sleep study)
Set-up: species or system rat
Conditions: for Maximal change in REM sleep: cumulative time in REM sleep compared to vehicle controls, first 24 hours after dose
Method: Sleep measurement by EEG: For the EEG sleep measurements, adult, male Wistar rats were anesthetized and surgically implanted with a cranial implant for chronic electro-encephalogram (EEG) and electromyogram (EMG) recording. At least three weeks were allowed for the animal to recover from surgery. Food and water were available ad libitum and the ambient temperature was 24±1° C. A 24-hr light-dark cycle (LD 12:12) was maintained throughout the study using fluorescent light. Light intensity averaged 35-40 lux at mid-level inside the cage. Animals were undisturbed for two days before and after each treatment. Sleep and wakefulness were determined using a microcomputer-based sleep-wake and physiological monitoring system. The system monitored amplified EEG (×10,000, bandpass 1-30 Hz; digitization rate 100 Hz, integrated EMG (bandpass 10-100 Hz, RMS integration), and telemetered body temperature and non-specific locomotor activity and drinking activity, from 16 rodents simultaneously. Arousal states were classified on-line as NREM sleep, REM sleep, wake, or theta-domihated wake every 10 seconds using EEG period and amplitude feature extraction and ranked membership algorithms. Individually taught EEG-arousal-state templates and EMG criteria differentiated REM sleep from theta-dominated wake. Drinking and locomotor activity were automatically recorded as discrete events every 10 seconds, and body temperature was recorded each minute. Data quality was assured by frequent on-line inspection of the EEG and EMG signals.
Drug Treatment: A NPY Y1 receptor antagonist was administered at 5, 10, 20 or 40 mg/kg in 0.25% methylcellulose vehicle. The NPY Y5 receptor antagonist of Formula la was administered at 5, 10 or 40 mg/kg and the NPY Y5 receptor antagonist of Formula IIa was administered at 10 and 40 mg/kg (both in 32% hydroxypropyl-betacyclodextrin vehicle). Drugs and vehicles were administered by oral gavage. Rats were randomly assigned to receive treatments in […]. The recording duration for the bioassay was 30 hours before and after treatment. At least 7 days “washout” elapsed between each treatment.
Variables recorded by EEG sleep-wake variables included NREM, REM, total sleep, and duration of sleep and wake bouts and were defined and computed as follows: • Wakefulness, NREM sleep, and REM sleep: percent time in state per hour or per 5 minute bin. • Cumulation of total sleep, NREM sleep, REM sleep, locomotor activity, and drink activity: post-treatment accumulated change over baseline. Change—from-baseline scores were computed by subtracting from the post-treatment value the baseline value at the corresponding circadian time. The change-from-baseline scores were then cumulated in hourly bins, and these values were plotted. • Sleep, wakefulness, and REM sleep bouts: The longest bout and the average bout of uninterrupted sleep each hour, measured in minutes. “Interruption” is defined as 3 or more consecutive 10 sec epochs of wakefulness. An analogous quantification is carried out for bouts of wakefulness and REM sleep. […] Pre-clinical measures of sleep bout length are also strong predictors of soporific efficacy in humans. • Locomotor activity: counts per hour or counts per 5 minute bin. • Locomotor activity intensity: locomotor activity counts per minute of EEG-defined wakefulness. This variate allows an assessment of locomotor activity that is independent of the amount of time awake, thus, it may be used to quantify the specificity of a wake- or sleep-promoting effect (Edgar et al. 1997).
Statistical Analysis—Mixed Model: Treatment effects were analyzed by a mixed model for repeated measures data. Mixed models were performed comparing each active-treatment with vehicle. For all models analysis was based on post-treatment hours with each hour adjusted for the corresponding baseline hour. Adjusting for baseline takes into account any differences between groups during baseline. […]

[1] = 5, 10 and 40 mg/kg, oral gavage

## O=C1OC2(CCN(C(=O)Nc3ccc(C(F)(F)F)cn3)CC2)c2ccccc21 [Formula Ia]
[1]
  Effect on NREM sleep: increased NPEM sleep
  Effect on REM sleep: significantly reduced REM sleep in a dose-related manner
  Effect on sleep continuity (sleep bout length): increased
After 40 mg/kg, oral gavage
  Persistence of REM sleep inhibiting and NREM sleep promoting effects: at least 48 hours
  REM sleep inhibiting and NREM sleep promoting effects still observed after dosing: ≥ 4.5 days
Dose 5 (mg/kg), oral gavage
  Maximal change in REM sleep: −23.8* minutes
Dose 10 (mg/kg), oral gavage
  Maximal change in REM sleep: −42.6* minutes
Dose 40 (mg/kg), oral gavage
  Maximal change in REM sleep: −74.4* minutes
Summary statement, no dose given
  Effect on sleep (REM and NREM) in a laboratory animal: affected sleep (REM and NREM)

Reference: US20050119285A1, “Treatment of neurological disorders related to rapid eye movement (REM) sleep disturbances with NPY Y5 receptor antagonists” (Pfizer Inc, priority 2003, published 2005)
